According to patent publication US20240425517A1, “NOVEL COMPOUND FOR DEGRADATION OF TARGET PROTEIN OR POLYPEPTIDE BY POLYUBIQUITINATION” (PRAZER THERAPEUTICS INC., priority 2021, published 2024):

molecular target: T1, BRD4 proteins (Homo sapiens, UniProt O60885); experiment: Degradation of BRD4 protein in MM.1S cell lines (Western blot densitometry); format: cell-based; settings: MM.1S cells, 10 μM, 24 hours
T1 construct: endogenous in cells; host or cells: MM.1S
Procedure: To confirm that the compounds (BRD4 degraders) of Preparation Examples I′ to IV′ reduce the amount of BRD4 proteins, experiments were performed using MM.1S cell lines, which are B cells derived from the blood of multiple myeloma patients.
Specifically, the MM.1S cells were cultured in RPMI-1640 medium supplemented with 10% fetal bovine serum and Penicillin/Streptomycin (100 U/mL), transferred to a 6-well plate, and after 24 hours, the BRD4 degraders were diluted in the culture medium and the cells were treated with 10 μM each. After treatment, the cells were incubated in a C02 incubator for 24 hours. Through protein immunoblotting (Western Blot), the degrading capacity of each compound against BRD4 proteins in cells was confirmed. After cell culture was completed according to the experimental conditions, the cells were collected and centrifuged at 1,800 rpm for 3 minutes. The cells in the precipitate were lysed with RIPA (25 mM Tris-HCl pH 7.6, 150 mM NaCl, 1% NP-40, 1% sodium deoxycholate, 0.1% SDS, 1× Protease Inhibitor Cocktail), 5× sample buffer was added, and then heated at 100° C. for 15 minutes. The prepared sample was electrophoresed with sodium dodecyl sulfate poly acrylamide gel electrophoresis (SDS-PAGE), and then the proteins in the gel were transferred to a PVDF membrane using Trans-Blot Turbo. The membrane was treated with a 5% bovine serum albumin (BSA) solution and blocked at room temperature for 2 hours, and then BRD4 and R-actin antibodies were diluted in the 5% BSA solution to react with the membrane at 4° C. overnight. After washed with PBST (0.5% Tween20) 5 times, horse radish peroxidase (HRP)-conjugated secondary antibodies were diluted in PBST to react at room temperature for 2 hours, and then washed again with a PBST solution 5 times. After enzyme-substrate reaction was carried out using a HRP substrate, a signal was measured with chemi-doc equipment, and the densitometry of a band corresponding to the BRD4 protein detected in the Preparation Example Compounds was quantitatively analyzed. The case when the degrading capacity of each BRD4 degrader was reduced by less than 40% is indicated as +, the case when the degrading capacity was reduced by 40% to 70% (exclusive of 70) is indicated as ++, the case when the degrading capacity was reduced by 70% or more is indicated as +++ in Tables 16 to 19 below. As shown in the following Tables, it was confirmed that the compounds of Preparation Examples I′ to IV′ according to the present invention have excellent degrading capacity.

Row | SMILES | BRD4 degrading capacity (%)
1 | Cc1sc2c(c1C)C(c1ccc(Cl)cc1)=N[C@@H](CC(=O)NCCCCC(=O)Nc1cccc(C#CCN)c1)c1nnc(C)n1-2.Cl [4-164′, (S)—N-(3-(3-aminoprop-1-yn-1-yl)phenyl)-5-(2-(4-(4-chlorophenyl)-2,3,9-trimethyl-6H-thieno[3,2-f][1,2,4]triazolo[4,3-a][1,4]diazepin-6-yl)acetamido)pentanamide hydrochloride] | ++ (the degrading capacity was reduced by 40% to 70% (exclusive of 70))
2 | Cc1sc2c(c1C)C(c1ccc(Cl)cc1)=N[C@@H](CC(=O)NCCCCCC(=O)Nc1ccc(C#CCN)cc1)c1nnc(C)n1-2.Cl [4-165′, (S)—N-(4-(3-aminoprop-1-yn-1-yl)phenyl)-6-(2-(4-(4-chlorophenyl)-2,3,9-trimethyl-6H-thieno[3,2-f][1,2,4]triazolo[4,3-a][1,4]diazepin-6-yl)acetamido)hexanamide hydrochloride] | +++ (the degrading capacity was reduced by 70% or more)
3 | Cc1sc2c(c1C)C(c1ccc(Cl)cc1)=N[C@@H](CC(=O)NCCCNC(=O)c1ccc(C#CCN)o1)c1nnc(C)n1-2.Cl [4-166′] | +++ (the degrading capacity was reduced by 70% or more)
4 | Cc1sc2c(c1C)C(c1ccc(Cl)cc1)=N[C@@H](CC(=O)NCCCCCNC(=O)c1ccc(C#CCN)o1)c1nnc(C)n1-2.Cl [4-167′, (S)-5-(3-aminoprop-1-yn-1-yl)-N-(5-(2-(4-(4-chlorophenyl)-2,3,9-trimethyl-6H-thieno[3,2-f][1,2,4]triazolo[4,3-a][1,4]diazepin-6-yl)acetamido)pentyl)furan-2-carboxamide hydrochloride] | ++ (the degrading capacity was reduced by 40% to 70% (exclusive of 70))
5 | Cc1sc2c(c1C)C(c1ccc(Cl)cc1)=N[C@@H](CC(=O)NCC#Cc1ccc(C#CCN)nc1)c1nnc(C)n1-2.Cl [4-179′, (S)—N-(3-(6-(3-aminoprop-1-yn-1-yl)pyridin-3-yl)prop-2-yn-1-yl)-2-(4-(4-chlorophenyl)-2,3,9-trimethyl-6H-thieno[3,2-f][1,2,4]triazolo[4,3-a][1,4]diazepin-6-yl)acetamide hydrochloride] | + (the degrading capacity of each BRD4 degrader was reduced by less than 40%)
6 | Cc1sc2c(c1C)C(c1ccc(Cl)cc1)=N[C@@H](CC(=O)NCC#Cc1ccc(C#CCON)s1)c1nnc(C)n1-2.Cl [4-223′, (S)—N-(3-(5-(3-(aminooxy)prop-1-yn-1-yl)thiophen-2-yl)prop-2-yn-1-yl)-2-(4-(4-chlorophenyl)-2,3,9-trimethyl-6H-thieno[3,2-f][1,2,4]triazolo[4,3-a][1,4]diazepin-6-yl)acetamide hydrochloride] | ++ (the degrading capacity was reduced by 40% to 70% (exclusive of 70))
7 | Cc1sc2c(c1C)C(c1ccc(Cl)cc1)=N[C@@H](CC(=O)NCCCCCCCCCNC(=O)c1ccc(C#CCN)o1)c1nnc(C)n1-2.Cl [4-225′, (S)-5-(3-aminoprop-1-yn-1-yl)-N-(9-(2-(4-(4-chlorophenyl)-2,3,9-trimethyl-6H-thieno[3,2-f][1,2,4]triazolo[4,3-a][1,4]diazepin-6-yl)acetamido)nonyl)furan-2-carboxamide hydrochloride] | +++ (the degrading capacity was reduced by 70% or more)
8 | Cc1sc2c(c1C)C(c1ccc(Cl)cc1)=N[C@@H](CC(=O)N1CCN(c3ccc(C#CCN)cc3)CC1)c1nnc(C)n1-2.Cl [4-226′, (S)-1-(4-(4-(3-aminoprop-1-yn-1-yl)phenyl)piperazin-1-yl)-2-(4-(4-chlorophenyl)-2,3,9-trimethyl-6H-thieno[3,2-f][1,2,4]triazolo[4,3-a][1,4]diazepin-6-yl)ethan-1-one hydrochloride] | +++ (the degrading capacity was reduced by 70% or more)
9 | Cc1sc2c(c1C)C(c1ccc(Cl)cc1)=N[C@@H](CC(=O)N1CCN(C(=O)c3ccc(C#CCN)o3)CC1)c1nnc(C)n1-2.Cl [4-227′, (S)-1-(4-(5-(3-aminoprop-1-yn-1-yl)furan-2-carbonyl)piperazin-1-yl)-2-(4-(4-chlorophenyl)-2,3,9-trimethyl-6H-thieno[3,2-f][1,2,4]triazolo[4,3-a][1,4]diazepin-6-yl)ethan-1-one hydrochloride] | ++ (the degrading capacity was reduced by 40% to 70% (exclusive of 70))
10 | COC(=O)c1ccc(NC(=O)CCCNC(=O)C[C@@H]2N=C(c3ccc(Cl)cc3)c3c(sc(C)c3C)-n3c(C)nnc32)cc1C#CCN.Cl [4-228′] | +++ (the degrading capacity was reduced by 70% or more)
11 | Cc1sc2c(c1C)C(c1ccc(Cl)cc1)=N[C@@H](CC(=O)NCCCCCCCCNC(=O)c1ccc(C#CCN)o1)c1nnc(C)n1-2.Cl [4-235′] | ++ (the degrading capacity was reduced by 40% to 70% (exclusive of 70))
12 | CCOC(=O)c1ccc(NC(=O)CCCNC(=O)C[C@@H]2N=C(c3ccc(Cl)cc3)c3c(sc(C)c3C)-n3c(C)nnc32)cc1C#CCN.Cl [5-1′, ethyl (S)-2-(3-aminoprop-1-yn-1-yl)-4-(4-(2-(4-(4-chlorophenyl)-2,3,9-trimethyl-6H-thieno[3,2-f][1,2,4]triazolo[4,3-a][1,4]diazepin-6-yl)acetamido)butanamido)benzoate hydrochloride] | +++ (the degrading capacity was reduced by 70% or more)
13 | Cc1sc2c(c1C)C(c1ccc(Cl)cc1)=N[C@@H](CC(=O)NCCCC(=O)Nc1ccc(C(=O)OC(C)C)c(C#CCN)c1)c1nnc(C)n1-2.Cl [5-2′, isopropyl (S)-2-(3-aminoprop-1-yn-1-yl)-4-(4-(2-(4-(4-chlorophenyl)-2,3,9-trimethyl-6H-thieno[3,2-f][1,2,4]triazolo[4,3-a][1,4]diazepin-6-yl)acetamido)butanamido)benzoate hydrochloride] | ++ (the degrading capacity was reduced by 40% to 70% (exclusive of 70))
14 | COC(=O)c1ccc(NC(=O)CCNC(=O)C[C@@H]2N=C(c3ccc(Cl)cc3)c3c(sc(C)c3C)-n3c(C)nnc32)cc1C#CCN.Cl [5-4′, methyl (S)-2-(3-aminoprop-1-yn-1-yl)-4-(3-(2-(4-(4-chlorophenyl)-2,3,9-trimethyl-6H-thieno[3,2-f][1,2,4]triazolo[4,3-a][1,4]diazepin-6-yl)acetamido)propanamido)benzoate hydrochloride] | ++ (the degrading capacity was reduced by 40% to 70% (exclusive of 70))
15 | COC(=O)c1ccc(NC(=O)CCCCNC(=O)C[C@@H]2N=C(c3ccc(Cl)cc3)c3c(sc(C)c3C)-n3c(C)nnc32)cc1C#CCN.Cl [5-5′, methyl (S)-2-(3-aminoprop-1-yn-1-yl)-4-(5-(2-(4-(4-chlorophenyl)-2,3,9-trimethyl-6H-thieno[3,2-f][1,2,4]triazolo[4,3-a][1,4]diazepin-6-yl)acetamido)pentanamido)benzoate hydrochloride] | ++ (the degrading capacity was reduced by 40% to 70% (exclusive of 70))
16 | COC(=O)c1ccc(NC(=O)CCCCCNC(=O)C[C@@H]2N=C(c3ccc(Cl)cc3)c3c(sc(C)c3C)-n3c(C)nnc32)cc1C#CCN.Cl [5-6′, methyl (S)-2-(3-aminoprop-1-yn-1-yl)-4-(6-(2-(4-(4-chlorophenyl)-2,3,9-trimethyl-6H-thieno[3,2-f][1,2,4]triazolo[4,3-a][1,4]diazepin-6-yl)acetamido)hexanamido)benzoate hydrochloride] | ++ (the degrading capacity was reduced by 40% to 70% (exclusive of 70))
17 | COC(=O)c1ccc(N2CCN(C(=O)C[C@@H]3N=C(c4ccc(Cl)cc4)c4c(sc(C)c4C)-n4c(C)nnc43)CC2)cc1C#CCN.Cl [5-7′, methyl (S)-2-(3-aminoprop-1-yn-1-yl)-4-(4-(2-(4-(4-chlorophenyl)-2,3,9-trimethyl-6H-thieno[3,2-f][1,2,4]triazolo[4,3-a][1,4]diazepin-6-yl)acetyl)piperazin-1-yl)benzoate hydrochloride] | + (the degrading capacity of each BRD4 degrader was reduced by less than 40%)
18 | Cc1sc2c(c1C)C(c1ccc(Cl)cc1)=N[C@@H](CC(=O)NCCCC(=O)Nc1ccc(C#CCN)c(CO)c1)c1nnc(C)n1-2.Cl [5-8′, (S)—N-(4-(3-aminoprop-1-yn-1-yl)-3-(hydroxymethyl)phenyl)-4-(2-(4-(4-chlorophenyl)-2,3,9-trimethyl-6H-thieno[3,2-f][1,2,4]triazolo[4,3-a][1,4]diazepin-6-yl)acetamido)butanamide hydrochloride] | ++ (the degrading capacity was reduced by 40% to 70% (exclusive of 70))
